# Laboratory results taken from patent publication US10336739B2, “4-hydroxy-3-(heteroaryl)pyridine-2-one APJ agonists” (BRISTOL-MYERS SQUIBB COMPANY, priority 2015, dated 2019).
# Target: human APJ receptor (Homo sapiens (Human), UniProt P35414)
# Assay: Intracellular cAMP accumulation assay (APJ hcAMP, HTRF)
# Format: cell-based
# Settings: HEK293 cells stably expressing human APJ receptor; inhibition of forskolin-mediated cAMP production; read-out: hAPJ cAMP EC50 (nM) Potency range
# How it was run: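 cAMP inhibition was quantified by HTRF against a cAMP standard curve, with EC50 fitted to a variable-slope sigmoidal curve. Compounds acted on 5,000 APJ-stable HEK293 cells for 30 minutes at room temperature alongside 2 μM forskolin and […] IBMX. Detection reagents were incubated 60 min.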
# human APJ receptor, sequence (P35414 whole entry): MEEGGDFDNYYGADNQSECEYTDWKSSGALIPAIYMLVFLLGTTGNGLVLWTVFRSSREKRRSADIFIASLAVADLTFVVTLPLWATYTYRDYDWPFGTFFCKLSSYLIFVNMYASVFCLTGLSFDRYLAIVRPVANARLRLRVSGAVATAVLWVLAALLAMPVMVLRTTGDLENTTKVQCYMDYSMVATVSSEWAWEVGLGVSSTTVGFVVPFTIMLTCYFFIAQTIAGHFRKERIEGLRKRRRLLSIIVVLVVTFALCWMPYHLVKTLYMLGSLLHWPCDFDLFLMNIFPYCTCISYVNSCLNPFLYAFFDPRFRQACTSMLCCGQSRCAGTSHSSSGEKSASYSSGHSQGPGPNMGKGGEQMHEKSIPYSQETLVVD
row,EC50,Structure (SMILES)
1,0.01 to 10 nM,"CCCCc1nc(O)c(-c2nnc(CC(=O)NCc3ccc(N(C)C)cc3)o2)c(O)c1-c1c(OC)cccc1OC [Example 270, 2-{5-[6-butyl-5-(2,6-dimethoxyphenyl)-2,4-dihydroxy-pyridin-3-yl]-1,3,4-oxadiazol-2-yl}-N-{[4-(dimethylamino)phenyl]methyl} acetamide]"
2,0.01 to 10 nM,"CCCCc1nc(O)c(-c2nnc(CC(=O)NCc3nnc(C)o3)o2)c(O)c1-c1c(OC)cccc1OC [Example 271, 2-{5-[6-butyl-5-(2,6-dimethoxyphenyl)-2,4-dihydroxypyridin-3-yl]-1,3,4-oxadiazol-2-yl}-N-[(5-methyl-1,3,4-oxadiazol-2-yl)methyl]acetamide]"
3,0.01 to 10 nM,"CCCCc1nc(O)c(-c2nnc(CC(=O)NCc3cc(C(C)C)no3)o2)c(O)c1-c1c(OC)cccc1OC [Example 272, 2-{5-[6-butyl-5-(2,6-dimethoxyphenyl)-2,4-dihydroxy-pyridin-3-yl]-1,3,4-oxadiazol-2-yl}-N-{[3-(propan-2-yl)-1,2-oxazol-5-yl]methyl} acetamide]"
4,10 to 100 nM,"CCCCc1nc(O)c(-c2nnc(CC(=O)NCc3ccc(S(N)(=O)=O)cc3)o2)c(O)c1-c1c(OC)cccc1OC [Example 273, 2-{5-[6-butyl-5-(2,6-dimethoxyphenyl)-2,4-dihydroxy-pyridin-3-yl]-1,3,4-oxadiazol-2-yl}-N-[(4-sulfamoylphenyl)methyl]acetamide]"
5,0.01 to 10 nM,"CCOCc1nc(O)c(-c2nnc(Cc3ccc(Cl)cn3)o2)c(O)c1-c1c(O)cccc1OC [Example 274, 3-{5-[(5-chloropyridin-2-yl)methyl]-1,3,4-oxadiazol-2-yl}-6-(ethoxymethyl)-5-(2-hydroxy-6-methoxyphenyl) pyridine-2,4-diol]"
6,10 to 100 nM,"CCOCc1nc(O)c(-c2nnc(Cc3ccc(Cl)cn3)o2)c(O)c1-c1c(O)cccc1OC [Example 275, 3-{5-[(5-chloropyridin-2-yl)methyl]-1,3,4-oxadiazol-2-yl}-6-(ethoxymethyl)-5-(2-hydroxy-6-methoxyphenyl) pyridine-2,4-diol]"
7,10 to 100 nM,"CCOCc1nc(O)c(-c2nnc(Cc3ccc(Cl)cn3)o2)c(O)c1-c1c(O)cccc1O [Example 276, 3-{5-[(5-chloropyridin-2-yl)methyl]-1,3,4-oxadiazol-2-yl}-5-(2,6-dihydroxyphenyl)-6-(ethoxymethyl) pyridine-2,4-diol]"
